Converted amounts (≈) assume the structure as drawn. Residues, ends and D or L forms follow the SMILES beside them.
What was measured:
Assay type in all cases: cell-based
E. faecium 1042 = system: E. faecium 1042
Experimental: (§1) Standard strains included S. aureus ATCC33592, S. aureus CICC25138, and Salmonella enterica ATCC14028, which were purchased from the China Center of Industrial Culture Collection (CICC). Standard strains including E.coli CMCC44102, Salmonella enterica CMCC50071, and S. aureus CMCC26003 were purchased from the National Center for Medical Culture Collections (CMCC). […] All experiments using the above strains were carried out in a BSL‐2 laboratory. The clinical laboratory of Qilu Hospital detected bacterial resistance to various antibiotics. All strains were streaked on Nutrient Broth (NB) agar medium and incubated overnight at 37°C.
(§2) The antimicrobial activity of the peptides was examined in sterile 96‐well plates using the broth microdilution according to the CLSI standard. The colonies were suspended in saline solution, the turbidity was adjusted to McFarland 0.5 to reach a bacterial concentration of 10^8 CFU/mL, and again diluted 100 times for the inhibition test. Then, 50 µL of bacterial suspension at 1 × 10^6 CFU/mL was incubated with the same volume of different concentrations of peptide solution [serial twofold dilutions in Mueller–Hinton Broth (Hopebio)]. […] All experiments were performed with three independent replicates.

E. faecium 21 = system: E. faecium 21
Experimental: as §1, §2

E.coli 110 = system: E.coli 110
Experimental: as §1, §2

E.coli 208 = system: E.coli 208
Experimental: as §1, §2

K. pneumoniae 7713 = system: K. pneumoniae 7713
Experimental: as §1, §2

P. aeruginosa 112 = system: P. aeruginosa 112
Experimental: as §1, §2

P. aeruginosa 116 = system: P. aeruginosa 116
Experimental: as §1, §2

P. aeruginosa 119 = system: P. aeruginosa 119
Experimental: as §1, §2

S. aureus 103 = system: S. aureus 103
Experimental: as §1, §2

S. aureus 129 = system: S. aureus 129
Experimental: as §1, §2

S. aureus ATCC33592 = system: S. aureus ATCC33592
Experimental: as §1, §2

S. aureus CICC25138 = system: S. aureus CICC25138
Experimental: as §1, §2

E.coli CMCC44102 = system: E.coli CMCC44102
Experimental: as §1, §2

S. aureus CMCC26003 = system: S. aureus CMCC26003
Experimental: as §1, §2

SMILES | MIC (μg/mL) E. faecium 1042 (E. faecium 1042) | MIC (μg/mL) E. faecium 21 (E. faecium 21) | MIC (μg/mL) E.coli 110 (E.coli 110) | MIC (μg/mL) E.coli 208 (E.coli 208) | MIC (μg/mL) K. pneumoniae 7713 (K. pneumoniae 7713) | MIC (μg/mL) P. aeruginosa 112 (P. aeruginosa 112) | MIC (μg/mL) P. aeruginosa 116 (P. aeruginosa 116) | MIC (μg/mL) P. aeruginosa 119 (P. aeruginosa 119) | MIC (μg/mL) S. aureus 103 (S. aureus 103) | MIC (μg/mL) S. aureus 129 (S. aureus 129) | MIC (μg/mL) S. aureus ATCC33592 (S. aureus ATCC33592) | MIC (μg/mL) S. aureus CICC25138 (S. aureus CICC25138) | MIC (μg/mL) E.coli CMCC44102 (E.coli CMCC44102) | MIC (μg/mL) S. aureus CMCC26003 (S. aureus CMCC26003)
CC[C@H](C)[C@H](NC(=O)[C@H](CCCCN)NC(=O)[C@H](Cc1c[nH]c2ccccc12)NC(=O)[C@@H](N)CCCCN)C(=O)N[C@@H](CCCCN)C(=O)N[C@@H](Cc1c[nH]c2ccccc12)C(=O)N[C@@H](Cc1c[nH]cn1)C(=O)N[C@H](C(=O)N[C@@H](CCCNC(=N)N)C(=O)N[C@@H](Cc1c[nH]c2ccccc12)C(=O)N[C@@H](Cc1ccccc1)C(=O)N[C@@H](CCCNC(=N)N)C(=O)N[C@H](C(=O)N[C@@H](CC(C)C)C(N)=O)C(C)C)C(C)C [QLX-3DV-10] (H-KWKIKWHVRWFRVL-NH2) | 8 µg/mL (≈ 4.04 µM) | 8 µg/mL (≈ 4.04 µM) | 32 µg/mL (≈ 16.1 µM) | 32 µg/mL (≈ 16.1 µM) | 16 µg/mL (≈ 8.07 µM) | 32 µg/mL (≈ 16.1 µM) | 8 µg/mL (≈ 4.04 µM) | 64 µg/mL (≈ 32.3 µM) | 8 µg/mL (≈ 4.04 µM) | 16 µg/mL (≈ 8.07 µM) | 16 µg/mL (≈ 8.07 µM) | 32 µg/mL (≈ 16.1 µM) |  | 
CC[C@H](C)[C@H](NC(=O)[C@H](CCCNC(=N)N)NC(=O)[C@H](Cc1c[nH]c2ccccc12)NC(=O)[C@H](CCCCN)NC(=O)[C@H](CCC(N)=O)NC(=O)[C@H](CCCNC(=N)N)NC(=O)[C@@H](N)CCCNC(=N)N)C(=O)N[C@@H](CC(C)C)C(=O)N[C@@H](C)C(=O)N[C@@H](CC(C)C)C(=O)N[C@@H](CC(N)=O)C(=O)N[C@H](C(=O)N[C@@H](Cc1c[nH]c2ccccc12)C(=O)N[C@@H](CCCCN)C(N)=O)[C@@H](C)CC [QLX-3DV-11] (H-RRQKWRILALNIWK-NH2) | 4 µg/mL (≈ 2.13 µM) | 4 µg/mL (≈ 2.13 µM) | 4 µg/mL (≈ 2.13 µM) | 8 µg/mL (≈ 4.25 µM) | 8 µg/mL (≈ 4.25 µM) | 4 µg/mL (≈ 2.13 µM) | 32 µg/mL (≈ 17 µM) | 32 µg/mL (≈ 17 µM) | 16 µg/mL (≈ 8.51 µM) | 4 µg/mL (≈ 2.13 µM) | 8 µg/mL (≈ 4.25 µM) | 16 µg/mL (≈ 8.51 µM) | 4 µg/mL (≈ 2.13 µM) | 2 µg/mL (≈ 1.06 µM)
CC(C)C[C@H](NC(=O)[C@H](Cc1ccccc1)NC(=O)[C@H](CCCCN)NC(=O)[C@H](Cc1c[nH]c2ccccc12)NC(=O)[C@H](Cc1c[nH]c2ccccc12)NC(=O)[C@@H]1CCCN1C(=O)[C@H](CCCNC(=N)N)NC(=O)[C@@H](NC(=O)[C@H](Cc1ccccc1)NC(=O)[C@H](CCCCN)NC(=O)[C@H](CCCNC(=N)N)NC(=O)[C@H](Cc1c[nH]c2ccccc12)NC(=O)[C@H](CCCNC(=N)N)NC(=O)[C@H](CCCCN)NC(=O)[C@H](Cc1ccc(O)cc1)NC(=O)[C@H](CCC(N)=O)NC(=O)[C@@H](N)CCCNC(=N)N)C(C)C)C(=O)N[C@@H](CCCCN)C(=O)N[C@@H](CC(=O)O)C(N)=O [QLX-3DV-14] (H-RQYKRWRKFVRPWWKFLKD-NH2) |  | 8 µg/mL (≈ 2.94 µM) | 8 µg/mL (≈ 2.94 µM) | 16 µg/mL (≈ 5.88 µM) |  | 4 µg/mL (≈ 1.47 µM) | 32 µg/mL (≈ 11.8 µM) | 128 µg/mL (≈ 47 µM) | 8 µg/mL (≈ 2.94 µM) | 16 µg/mL (≈ 5.88 µM) | 8 µg/mL (≈ 2.94 µM) | 32 µg/mL (≈ 11.8 µM) | 4 µg/mL (≈ 1.47 µM) | 8 µg/mL (≈ 2.94 µM)
CC[C@H](C)[C@H](NC(=O)[C@H](CC(C)C)NC(=O)[C@@H](NC(=O)[C@H](C)NC(=O)[C@@H](N)CC(C)C)C(C)C)C(=O)N[C@@H](Cc1ccccc1)C(=O)N[C@H](C(=O)N[C@@H](CCCNC(=N)N)C(=O)N[C@@H](CCCNC(=N)N)C(=O)N[C@@H](CCCCN)C(=O)N[C@@H](CCC(N)=O)C(=O)N[C@@H](CC(C)C)C(N)=O)C(C)C [QLX-3DV-17] (H-LAVLIFVRRKQL-NH2) | 8 µg/mL (≈ 5.5 µM) | 16 µg/mL (≈ 11 µM) | 32 µg/mL (≈ 22 µM) | 16 µg/mL (≈ 11 µM) |  |  |  | 64 µg/mL (≈ 44 µM) | 32 µg/mL (≈ 22 µM) | 16 µg/mL (≈ 11 µM) | 64 µg/mL (≈ 44 µM) | 32 µg/mL (≈ 22 µM) | 8 µg/mL (≈ 5.5 µM) | 4 µg/mL (≈ 2.75 µM)
CC[C@H](C)[C@H](NC(=O)[C@H](Cc1c[nH]c2ccccc12)NC(=O)[C@@H]1CCCN1C(=O)[C@H](CC(C)C)NC(=O)[C@H](CCCCN)NC(=O)[C@H](Cc1c[nH]c2ccccc12)NC(=O)[C@H](C)NC(=O)[C@H](CCCNC(=N)N)NC(=O)[C@H](CCC(N)=O)NC(=O)[C@H](CCC(N)=O)NC(=O)[C@@H](N)Cc1ccc(O)cc1)C(=O)N[C@@H](CC(C)C)C(=O)N[C@@H](CCCNC(=N)N)C(=O)N[C@@H](Cc1ccccc1)C(=O)N[C@@H](CC(C)C)C(=O)N[C@@H](CCCNC(=N)N)C(=O)N[C@@H](CC(C)C)C(N)=O [QLX-3DV-18] (H-YQQRAWKLPWILRFLRL-NH2) | 8 µg/mL (≈ 3.5 µM) | 8 µg/mL (≈ 3.5 µM) | 32 µg/mL (≈ 14 µM) | 8 µg/mL (≈ 3.5 µM) | 64 µg/mL (≈ 28 µM) | 8 µg/mL (≈ 3.5 µM) |  | 64 µg/mL (≈ 28 µM) | 16 µg/mL (≈ 7 µM) | 32 µg/mL (≈ 14 µM) |  | 16 µg/mL (≈ 7 µM) | 16 µg/mL (≈ 7 µM) | 16 µg/mL (≈ 7 µM)
CC[C@H](C)[C@H](N)C(=O)N[C@H](C(=O)N[C@H](C(=O)N[C@@H](CCCNC(=N)N)C(=O)N[C@@H](Cc1ccccc1)C(=O)N[C@@H](CC(C)C)C(=O)N[C@@H](CCCCN)C(=O)N1CCC[C@H]1C(=O)N[C@@H](CCCCN)C(=O)N[C@@H](CC(C)C)C(=O)N[C@@H](CC(C)C)C(=O)N[C@@H](CCCCN)C(=O)N[C@@H](C)C(=O)N[C@@H](CC(C)C)C(=O)N[C@@H](CCCCN)C(N)=O)[C@@H](C)CC)C(C)C [QLX-3DV-19] (H-IVIRFLKPKLLKALK-NH2) |  | 16 µg/mL (≈ 8.99 µM) | 8 µg/mL (≈ 4.5 µM) | 32 µg/mL (≈ 18 µM) | 32 µg/mL (≈ 18 µM) | 16 µg/mL (≈ 8.99 µM) | 32 µg/mL (≈ 18 µM) | 128 µg/mL (≈ 71.9 µM) | 64 µg/mL (≈ 36 µM) | 128 µg/mL (≈ 71.9 µM) | 128 µg/mL (≈ 71.9 µM) | 128 µg/mL (≈ 71.9 µM) | 16 µg/mL (≈ 8.99 µM) | 4 µg/mL (≈ 2.25 µM)
CC[C@H](C)[C@H](N)C(=O)N[C@@H](CCCNC(=N)N)C(=O)N1CCC[C@H]1C(=O)N[C@@H](CC(C)C)C(=O)N[C@H](C(=O)N[C@@H](CCC(N)=O)C(=O)N1CCC[C@H]1C(=O)N[C@@H](CCCNC(=N)N)C(=O)N[C@@H](Cc1ccc(O)cc1)C(=O)N[C@@H](CCCNC(=N)N)C(=O)N[C@@H](Cc1ccccc1)C(=O)N[C@@H](Cc1ccc(O)cc1)C(=O)N1CCC[C@H]1C(=O)N[C@@H](CCCNC(=N)N)C(=O)N[C@@H](CCCCN)C(=O)N[C@@H](CCCNC(=N)N)C(=O)N[C@@H](CC(C)C)C(N)=O)C(C)C [QLX-3DV-20] (H-IRPLVQPRYRFYPRKRL-NH2) | 64 µg/mL (≈ 28.3 µM) | 64 µg/mL (≈ 28.3 µM) | 32 µg/mL (≈ 14.2 µM) | 16 µg/mL (≈ 7.09 µM) | 64 µg/mL (≈ 28.3 µM) | 32 µg/mL (≈ 14.2 µM) |  |  |  | 64 µg/mL (≈ 28.3 µM) |  |  | 16 µg/mL (≈ 7.09 µM) | 16 µg/mL (≈ 7.09 µM)

Reference: article PMC13185819, “De Novo Multi‐Mechanism Antimicrobial Peptide Design via Multimodal Deep Learning” (Advanced Science, 2026)
